{"source": "paper PMC7926793", "about": "“Synthesis and Biological Evaluation of 1-(Diarylmethyl)-1H-1,2,4-triazoles and 1-(Diarylmethyl)-1H-imidazoles as a Novel Class of Anti-Mitotic Agent for Activity in Breast Cancer” (Pharmaceuticals, 2021)", "key": {"[1]": {"tested_on": "MCF-7 human breast cancer cells", "details": "MCF-7 section; read-out: IC50 of phenstatin positive control; cited from earlier work"}, "[2]": {"tested_on": "MDA-MB-231 human breast cancer cells", "parameters": "method as in PMID 25721862", "details": "read-out: reported IC50 of phenstatin in MDA-MB-231 cells; cited from earlier work"}, "[3]": {"tested_on": "tubulin (microtubule network) in MCF-7 cells", "assay": "immunofluorescence confocal microscopy of microtubule network", "type": "cell-based, human", "details": "1 μM, 16 h", "experimental": "Confocal microscopy was used to study the effects of drug treatment on MCF-7 cytoskeleton. For immunofluorescence, MCF-7 cells were seeded at 1 × 10^5 cells/mL on eight chamber glass slides (BD Biosciences). […] Following treatment, cells were gently washed in PBS, fixed for 20 min with 4% paraformaldehyde in PBS, and permeabilised in 0.5% Triton X-100. Following washes in PBS containing 0.1% Tween (PBST), cells were blocked in 5% bovine serum albumin diluted in PBST. […] Following washes in PBST, the cells were mounted in Ultra Cruz Mounting Media (Santa Cruz Biotechnology, Santa Cruz, CA) containing 4,6-diamino-2-phenolindol dihydrochloride (DAPI). Images were captured by Leica SP8 confocal microscopy with Leica application suite X software. All images in each experiment were collected on the same day using identical parameters. Experiments were performed on three independent occasions."}, "HL-60 leukaemia cells": {"tested_on": "HL-60 leukaemia cells", "parameters": "method as in PMID 19647439", "details": "read-out: IC50 of phenstatin in HL-60; cited from earlier work"}, "[4]": {"tested_on": "MCF-7 human breast cancer cells", "assay": "alamarBlue cell viability assay", "type": "cell-based", "details": "Homo sapiens, MCF7, 72 h, read-out: cell viability (viable cells)", "experimental": "The human breast carcinoma cell line MCF-7 was purchased from the European Collection of Animal Cell Cultures (ECACC) and cultured in Eagles minimum essential medium with 10% foetal bovine serum, 2 mM L-glutamine, and 100 μg/mL penicillin/streptomycin. The medium was supplemented with 1% non-essential amino acids. The human breast carcinoma cell line MDA-MB-231 was purchased from the ECACC. MDA-MB-231 cells were maintained in Dulbecco’s modified Eagle’s medium (DMEM) supplemented with 10% (v/v) foetal bovine serum, 2 mM L-glutamine, and 100 μg/mL penicillin/streptomycin (complete medium). HL-60 cells were derived from a patient with acute myeloid leukaemia and were obtained from the ECACC (Salisbury, UK). Cells were cultured in RPMI-1640 Glutamax medium supplemented with 10% FCS media and 100 μg/mL penicillin/streptomycin. MCF-10A cells were obtained as a kind gift from Dr Susan McDonnell, School of Chemical and Bioprocess Engineering, University College Dublin and were cultured in Dulbecco’s Modified Eagle Medium: Nutrient Mixture F-12 (DMEM/F12; Gibco) supplemented with 5% horse serum (Invitrogen), 20 ng mL^−1 epidermal growth factor (Merck Millipore), 0.5 μg mL^−1 hydrocortisone (Sigma,-Aldrich, Arklow, Co. Wicklow, Ireland), 100 ng mL^−1 cholera toxin (Sigma, Aldrich, Arklow, Co. Wicklow, Ireland), 10 μg mL^−1 insulin (Sigma, Aldrich, Arklow, Co. Wicklow, Ireland), and penicillin/streptomycin 5000 U mL^−1 (1%)(Gibco, Biosciences, 3 Charlemont Terrace, Crofton Road, Dun Laoghaire, Co Dublin, A96 K7H7, Ireland). Cells were maintained at 37 °C in 5% CO2 in a humidified incubator. All cells were sub-cultured 3 times/week by trypsinisation using TrypLE Express (1×).\nCells were seeded at a density of 2.5 × 10^4 cells/well (MCF-7, MDA-MB-231, MCF-10A cells) and 1 × 10^4 cells/well (HL-60) in 96-well plates (200 μL per well). After 24 h, cells were then treated with either medium alone, vehicle control (1% ethanol (v/v)) or with serial dilutions of CA-4 (4a), phenstatin (7a) or selected compounds (0.001–100 μM) in triplicate. Cell proliferation for MCF-7, MDA-MB-231, and MCF-10A cells was analysed using the alamarBlue assay (Invitrogen Corp.) according to the manufacturer’s instructions. After 67–69 h, alamarBlue (10% (v/v)) was added to each well, and plates were incubated for 3–5 h at 37 °C in the dark. Fluorescence was read using a 96-well fluorimeter with excitation at 530 nm and emission at 590 nm. Results were expressed as percentage viability relative to vehicle control (100%)."}, "[5]": {"tested_on": "purified bovine brain tubulin", "assay": "tubulin polymerisation assay", "type": "biochemical", "details": "10 μM", "experimental": "The assembly of purified bovine tubulin was monitored using a kit, BK006, purchased from Cytoskeleton Inc. (Denver, CO, USA). […] Light is scattered proportionally to the concentration of polymerised microtubules in the assay. Therefore, tubulin assembly was monitored turbidimetrically at 340 nm in a Spectramax 340 PC spectrophotometer (Molecular Devices, Sunnyvale, CA, USA). The absorbance was measured at 30 s intervals for 60 min."}, "MCF-7 cells [6]": {"tested_on": "MCF-7 cells", "assay": "Annexin V/PI apoptotic assay", "type": "cell-based, human", "details": "for Annexin V-stained positive cells (total apoptotic cells): 48 h", "experimental": "(§1) Apoptotic cell death was detected by flow cytometry using Annexin V and propidium iodide (PI). MCF-7 and MDA-MB-231 cells were seeded in 6-well plates at a density of 1 × 10^5 cells/mL (3 mL) and treated with either vehicle (0.1% (v/v) EtOH), Phenstatin (7a), or 21l at different concentrations for the selected time. Then, cells were harvested and prepared for flow cytometric analysis. […] Then, cells were washed once in binding buffer and then re-suspended in PI-containing binding buffer (1:1000). […] Four populations are produced during the assay: Annexin V and PI negative (Q4, healthy cells), Annexin V positive and PI negative (Q3, early apoptosis), Annexin V and PI positive (Q2, late apoptosis), and Annexin V negative and PI positive (Q1, necrosis)."}, "MDA-MB-231 cells": {"tested_on": "MDA-MB-231 cells", "assay": "Annexin V/PI apoptotic assay", "type": "cell-based, human", "details": "for total apoptotic cells: 48 h", "experimental": "as §1"}, "MCF-7 cells [7]": {"tested_on": "MCF-7 cells", "assay": "cell cycle analysis, PI staining, flow cytometry", "type": "cell-based, human", "details": "1 μM", "experimental": "The cells were collected by trypsinisation and centrifuged at 800× g for 15 min. Cells were washed twice with ice-cold phosphate-buffered saline (PBS) and fixed in ice-cold 70% ethanol overnight at −20 °C."}, "[8]": {"details": "Homo sapiens, MCF7, 48 h, read-out: Viable"}, "[9]": {"details": "Homo sapiens, MDA-MB-231, 48 h, read-out: Viable"}}}
{"compound": "COc1ccc(C(=O)c2cc(OC)c(OC)c(OC)c2)cc1O", "note": "[phenstatin, (3-Hydroxy-4-Methoxyphenyl)(3,4,5-Trimethoxyphenyl)Methanone, reference compound]", "values": [{"measurement": "IC50", "setting": "[1]", "result": "1.61 ± 2.7", "unit": "nM"}, {"measurement": "IC50", "setting": "[2]", "result": 1500, "unit": "nM"}, {"measurement": "effect on microtubule network of MCF-7 cells", "setting": "[3]", "result": "extensive depolymerisation of tubulin"}, {"measurement": "IC50", "setting": "HL-60 leukaemia cells", "result": 31, "unit": "nM"}, {"measurement": "viability at 1 µM", "setting": "[4]", "result": 30, "unit": "%"}, {"measurement": "effect on tubulin polymerisation and assembly", "setting": "[5]", "result": "significant inhibition of tubulin polymerisation"}, {"measurement": "viability at 0.1 µM", "setting": "MCF-7 cells [6]; [8]", "result": 58.4, "unit": "%"}, {"measurement": "viability at 0.5 µM", "setting": "MCF-7 cells [6]; [8]", "result": 50.7, "unit": "%"}, {"measurement": "Annexin V-stained positive cells (total apoptotic cells)", "setting": "MCF-7 cells [6]; MCF-7, 0.1 μM", "result": 36.1, "unit": "%"}, {"measurement": "Annexin V-stained positive cells (total apoptotic cells)", "setting": "MCF-7 cells [6]; MCF-7, 0.5 μM", "result": 46, "unit": "%"}, {"measurement": "viability at 0.1 µM", "setting": "MDA-MB-231 cells; [9]", "result": 80.4, "unit": "%"}, {"measurement": "viability at 0.5 µM", "setting": "MDA-MB-231 cells; [9]", "result": 80.6, "unit": "%"}, {"measurement": "total apoptotic cells", "setting": "MDA-MB-231 cells; MDA-MB-231, 0.1 μM", "result": 16.6, "unit": "%"}, {"measurement": "total apoptotic cells", "setting": "MDA-MB-231 cells; MDA-MB-231, 0.5 μM", "result": 17.9, "unit": "%"}, {"measurement": "cells in the G2/M phase", "setting": "MCF-7 cells [7]; 24 h", "result": 65, "unit": "%"}, {"measurement": "cells in the G2/M phase", "setting": "MCF-7 cells [7]; 48 h", "result": 49, "unit": "%"}, {"measurement": "cells in the G2/M phase", "setting": "MCF-7 cells [7]; 72 h", "result": 51, "unit": "%"}, {"measurement": "cells undergoing apoptosis (sub-G1)", "setting": "MCF-7 cells [7]; 72 h", "result": 18, "unit": "%"}]}
